Experimental data reported in PMC5784158, “New 2-Aryl-9-methyl-β-carbolinium salts as Potential Acetylcholinesterase Inhibitor agents: Synthesis, Bioactivity and Structure–Activity Relationship” (Scientific Reports, 2018).
Read-outs that look alike come from different tables or passages of the source.

How the values were obtained:
AChE = AChE (Musca domestica, UniProt Q7YWJ9); assay: biochemical; assay type: biochemical, fly
Method: AChE (E.C. 3.1.1.7) (BR, 200 u/mg) from fly’s head and BuChE (E.C. 3.1.1.8) (BR, 20 u/mg) from horse serum were purchased from Shanghai Yuanye biological technology Co. Ltd (Shanghai, China).
(§1) The inhibitory activities of the compounds against AChE were evaluated according to Ellman’s coupled enzyme assay[47] with the following modifications. 90 μL potassium phosphate buffer (PBS, 0.1 M, pH 7.4), 10 μL the solution of 2 units/mL AChE in 0.1 M PBS (pH 7.4) and 10 μL the solution of 200 μM test compounds in the mixed solution of methanol-PBS (pH 7.4) (1:9, V/V) were added to each well of a 96-well plate. The methanol-PBS solution was used as a blank control. After incubation at room temperature for 10 min, 60 μL the solution of 10 mM DTNB in PBS was added into each the well. The plate was placed on crushed ices and cooled for 20 min. To each the well was added 30 μL the solution of 7.5 mM ATCh in PBS (pH 7.4). […] Each test was performed in triplicate. Inhibition rates of the enzyme were calculated relative to a control sample. The inhibitory activities against BuChE were measured as described above for AChE, using 0.7 unit/mL BuChE and 4 mM BuTCh instead of AChE and ATCh as the enzyme and substrate, respectively.
(§2) The probit value of the average inhibition rate for each test concentration and the corresponding lg[concentration] were used to establish enzyme inhibition regression equation by the linear least-square fitting method. IC50 values were calculated from the equations.

BuChE = target: T1, BuChE (Equus caballus, UniProt P81908); assay: BuChE inhibition, Ellman's method; assay type: biochemical, horse; details: read-out: IC50 ± S.D BuChE
T1 construct: BuChE (E.C. 3.1.1.8) (BR, 20 u/mg) from horse serum; purchased Shanghai Yuanye biological technology Co. Ltd (Shanghai, China); host or cells: horse serum (tissue-derived)
T1 sequence (P81908 whole entry): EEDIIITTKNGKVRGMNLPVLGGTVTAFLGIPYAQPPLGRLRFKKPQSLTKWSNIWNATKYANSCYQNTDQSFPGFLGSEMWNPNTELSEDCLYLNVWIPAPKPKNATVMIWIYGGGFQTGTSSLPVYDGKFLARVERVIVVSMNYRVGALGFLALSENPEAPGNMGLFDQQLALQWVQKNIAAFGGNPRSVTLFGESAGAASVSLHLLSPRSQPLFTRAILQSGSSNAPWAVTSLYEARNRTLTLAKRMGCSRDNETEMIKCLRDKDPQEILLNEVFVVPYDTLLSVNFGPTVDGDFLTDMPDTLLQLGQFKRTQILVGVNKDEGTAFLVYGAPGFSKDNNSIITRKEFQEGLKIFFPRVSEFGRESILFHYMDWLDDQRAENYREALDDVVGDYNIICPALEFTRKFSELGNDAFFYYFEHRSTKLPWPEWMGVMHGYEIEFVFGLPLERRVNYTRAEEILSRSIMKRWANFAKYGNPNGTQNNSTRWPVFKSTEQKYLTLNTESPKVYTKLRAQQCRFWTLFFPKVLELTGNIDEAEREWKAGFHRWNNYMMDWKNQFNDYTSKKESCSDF
Text: There is increasing recognition that BuChE may play an important role in cholinergic transmission[15],[16]. While the level of AChE decreases dramatically in the advanced stage of AD, BuChE increases in brain regions involved in cognitive functions[17],[18]. At this point, BuChE is able to compensate for AChE loss by hydrolyzing ACh. These observations lead one to believe that inhibition of both AChE and BuChE may contribute to improvement of current symptomatic treatments of AD. Therefore, the compounds in Table 2 were also evaluated for BuChE inhibition activity by means of Ellman’s method. […] AChE (E.C. 3.1.1.7) (BR, 200 u/mg) from fly’s head and BuChE (E.C. 3.1.1.8) (BR, 20 u/mg) from horse serum were purchased from Shanghai Yuanye biological technology Co. Ltd (Shanghai, China).
as §1, §2

[1] = test concentration of the compound 10 μM

Chain of AChE (Q7YWJ9 81-659): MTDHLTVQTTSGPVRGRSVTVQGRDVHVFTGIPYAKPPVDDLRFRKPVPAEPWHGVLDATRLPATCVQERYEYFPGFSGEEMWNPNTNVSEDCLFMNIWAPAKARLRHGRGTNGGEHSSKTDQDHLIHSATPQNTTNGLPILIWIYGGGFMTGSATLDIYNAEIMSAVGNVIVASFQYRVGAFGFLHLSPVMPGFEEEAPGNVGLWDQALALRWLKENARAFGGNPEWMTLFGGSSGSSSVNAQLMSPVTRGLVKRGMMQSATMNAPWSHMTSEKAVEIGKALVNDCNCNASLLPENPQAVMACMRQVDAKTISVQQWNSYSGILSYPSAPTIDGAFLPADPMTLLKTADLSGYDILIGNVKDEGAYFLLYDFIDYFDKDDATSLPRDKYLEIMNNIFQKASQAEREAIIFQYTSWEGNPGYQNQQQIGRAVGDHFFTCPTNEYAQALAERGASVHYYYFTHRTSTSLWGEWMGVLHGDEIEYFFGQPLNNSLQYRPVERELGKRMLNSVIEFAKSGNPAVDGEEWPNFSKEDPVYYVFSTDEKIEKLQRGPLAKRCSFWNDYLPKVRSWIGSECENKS

Row | SMILES | SI: selectivity index, ratio IC50 (BuChE)/IC50 (AChE) (AChE) | IC50 (AChE; read-out: IC50 ± S.D AChE) | Inhibition rate (%) (AChE; [1]) | IC50 (BuChE) | IC50 (AChE; Estimated values based on the results in Table 1 (inhibition rate at 10 μM), read-out: IC50 AChE, estimated values) | IC50 (AChE; 10 μM, read-out: IC50 AChE, NA) | inhibition at 10 µM (AChE; test concentration of the compound 10 μM, read-out: Inhibition rate (%))
1 | Cn1c2c(c3ccccc31)CC[N+](c1ccccc1)=C2.[Br-] [Compound A1] | 0.54 | 18.6 ± 2.93 µM | 40.9 ± 2.1 ij % | 10.1 ± 1.66 µM | – | – | –
2 | Cn1c2c(c3ccccc31)CC[N+](c1ccc(F)cc1)=C2.[Br-] [Compound A4] | 4.22 | 14.1 ± 1.41 µM | 49.3 ± 2.2 fgh % | 59.5 ± 2.72 µM | – | – | –
3 | Cn1c2c(c3ccccc31)CC[N+](c1ccc(Cl)cc1)=C2.[Br-] [Compound A7] | 5.57 | 7.58 ± 1.29 µM | 60.1 ± 2.9 d % | 42.2 ± 0.86 µM | – | – | –
4 | Cn1c2c(c3ccccc31)CC[N+](c1ccc(Br)cc1)=C2.[Br-] [Compound A10] | 11.2 | 6.79 ± 2.29 µM | 60.3 ± 1.6 d % | 76.2 ± 11 µM | – | – | –
5 | Cn1c2c(c3ccccc31)CC[N+](c1ccc(I)cc1)=C2.[Br-] [Compound A13] | 9.80 | 5.5 ± 0.37 µM | 54.2 ± 3.2 ef % | 53.8 ± 2.51 µM | – | – | –
6 | Cn1c2c(c3ccccc31)CC[N+](c1cccc(O)c1)=C2.[Br-] [Compound A15] | 1.63 | 6.12 ± 0.61 µM | 51.8 ± 9.1 fg % | 10 ± 0.59 µM | – | – | –
7 | Cn1c2c(c3ccccc31)CC[N+](c1ccc(O)cc1)=C2.[Br-] [Compound A16] | 9.96 | 2.81 ± 0.22 µM | 64.3 ± 0.3 cd % | 28 ± 2.88 µM | – | – | –
8 | COc1ccc([N+]2=Cc3c(c4ccccc4n3C)CC2)cc1.[Br-] [Compound A19] | 46.9 | 2.92 ± 0.28 µM | 66.1 ± 0.5 c % | 137 ± 0.79 µM | – | – | –
9 | COc1ccc2c(c1)c1c(n2C)C=[N+](c2ccccc2)CC1.[Br-] [Compound A34] | 18.4 | 2.04 ± 0.33 µM | 68.4 ± 2.8 c % | 37.6 ± 2.84 µM | – | – | –
10 | Cc1ccc2c(c1)c1c(n2C)C=[N+](c2ccccc2)CC1.[Br-] [Compound A35] | 3.98 | 2.66 ± 0.37 µM | 70.3 ± 2.2 bc % | 10.6 ± 0.58 µM | – | – | –
11 | Cn1c2c(c3ccc(F)cc31)CC[N+](c1ccccc1)=C2.[Br-] [Compound A36] | 3.00 | 4.74 ± 0.9 µM | 59.3 ± 2.1 de % | 14.2 ± 0.44 µM | – | – | –
12 | Cn1c2c(c3ccc(Cl)cc31)CC[N+](c1ccccc1)=C2.[Br-] [Compound A37] | 2.91 | 4.02 ± 0.95 µM | 66.6 ± 4.7 c % | 11.7 ± 0.5 µM | – | – | –
13 | CCn1c2c(c3ccccc31)CC[N+](c1ccccc1)=C2.[Br-] [Compound A38] | 2.82 | 3.69 ± 0.4 µM | 76.6 ± 3.7 a % | 10.4 ± 0.4 µM | – | – | –
14 | CCCn1c2c(c3ccccc31)CC[N+](c1ccccc1)=C2.[Br-] [Compound A39] | 2.27 | 5.72 ± 0.66 µM | 67.1 ± 2.4 c % | 13 ± 0.62 µM | – | – | –
15 | CC(C)n1c2c(c3ccccc31)CC[N+](c1ccccc1)=C2.[Br-] [Compound A40] | 4.37 | 3.73 ± 0.34 µM | 68.9 ± 5.1 bc % | 16.3 ± 0.56 µM | – | – | –
16 | C=CCn1c2c(c3ccccc31)CC[N+](c1ccccc1)=C2.[Br-] [Compound A41] | 1.75 | 3.91 ± 0.36 µM | 74.4 ± 1.1 ab % | 6.83 ± 0.2 µM | – | – | –
17 | CCCCn1c2c(c3ccccc31)CC[N+](c1ccccc1)=C2.[Br-] [Compound A42] | 1.02 | 9.79 ± 3.55 µM | 53.9 ± 1.5 ef % | 10 ± 0.68 µM | – | – | –
18 | C1=[N+](c2ccccc2)CCc2c1[nH]c1ccccc21.[Br-] [Compound A46] | – | 18.2 ± 1.97 µM | 41.3 ± 1.4 ij % | 3.9 ± 0.53 µM | – | – | –
19 | Cn1c2cc(F)ccc2c2cc[n+](-c3ccccc3)cc21.[Br-] [Compound B36, 7-Fluoro-9-methyl-2-phenyl-β-carboline bromide] | – | 2.61 ± 0.51 µM | 76.2 ± 1.1 k % | – | – | – | –
20 | Cn1c2cc(Cl)ccc2c2cc[n+](-c3ccccc3)cc21.[Br-] [Compound B37, 7-Chloro-9-methyl-2-phenyl-β-carboline bromide] | – | 0.57 ± 0.08 µM | 89.9 ± 0.7 def % | – | – | – | –
21 | CCn1c2ccccc2c2cc[n+](-c3ccccc3)cc21.[Br-] [Compound B38, 9-Ethyl-2-phenyl-β-carboline bromide] | – | 0.76 ± 0.21 µM | 87.8 ± 1.1 efgh % | – | – | – | –
22 | CCCn1c2ccccc2c2cc[n+](-c3ccccc3)cc21.[Br-] [Compound B39, 9-Propyl-2-phenyl-β-carboline bromide] | – | 3.08 ± 0.66 µM | 78.8 ± 0.9 jk % | – | – | – | –
23 | CC(C)n1c2ccccc2c2cc[n+](-c3ccccc3)cc21.[Br-] [Compound B40, 9-Iso-propyl-2-phenyl-β-carboline bromide] | – | 0.54 ± 0.16 µM | 86.9 ± 0.8 fgh % | – | – | – | –
24 | C=CCn1c2ccccc2c2cc[n+](-c3ccccc3)cc21.[Br-] [Compound B41, 9-Allyl-2-phenyl-β-carboline bromide] | – | 1.18 ± 0.3 µM | 78.2 ± 1.6 k % | – | – | – | –
25 | CCCCn1c2ccccc2c2cc[n+](-c3ccccc3)cc21.[Br-] [Compound B42, 9-Butyl-2-phenyl-β-carboline bromide] | – | 2.91 ± 0.33 µM | 65.7 ± 0.6 m % | – | – | – | –
26 | CC(C)Cn1c2ccccc2c2cc[n+](-c3ccccc3)cc21.[Br-] [Compound B43, 9-Iso-butyl-2-phenyl-β-carboline bromide] | – | 0.98 ± 0.03 µM | 84.1 ± 0.6 hi % | – | – | – | –
27 | [Br-].c1ccc(Cn2c3ccccc3c3cc[n+](-c4ccccc4)cc32)cc1 [Compound B44, 9-Benzyl-2-phenyl-β-carboline bromide] | – | 11.2 ± 2.54 µM | 47.8 ± 2.0 q % | – | – | – | –
28 | CCOC(=O)Cn1c2ccccc2c2cc[n+](-c3ccccc3)cc21.[Br-] [Compound B45, 9-(Ethoxy-2-oxyethyl)-2-phenyl-β-carboline bromide] | – | – | 42.0 ± 0.7 rs % | – | > 10 µM | – | –
29 | Br.c1ccc(-n2ccc3c4ccccc4nc-3c2)cc1 [Compound B46, 2-Phenyl-β-carboline bromide] | – | 18 ± 2.42 µM | 43.0 ± 1.8 r % | – | – | – | –
30 | Cc1ccc(N2CCc3c(n(C)c4ccccc34)C2)cc1 [Compound C1, 9-methyl-2-p-toly-1,2,3,4-tetrahydro-β-carboline] | – | – | – | – | – | > 10 µM | -2.3 ± 3.2%
